# Source: US8324404B2, “3-thia-10-aza-phenanthrene derivatives” (Nycomed GmbH, priority 2004, dated 2012)
# Biological target: T1, PDE4B2 (Homo sapiens, UniProt Q07343)
# T1 construct: made in house; host or cells: SF21 insect cells (baculovirus, pCR-Bac vector; virus made in SF9 cells)
# Test: Inhibition of PDE4B2 activity, modified [3H]cAMP SPA (scintillation proximity assay) test
# Assay type: biochemical
# Conditions: recombinant PDE4B2 (GB no. M97515) expressed in SF21 insect cells; 0.5 μM cAMP; 15 min at 37° C.; read-out: PDE4 Inhibition [measured as −logIC50 (mol/l)] (converted)
# Protocol: The PDE4B2 (GB no. M97515) was a gift of Prof. M. Conti (Stanford University, USA). It was amplified from the original plasmid (pCMV5) via PCR with primers Rb9 (5′-[…]-3′) and Rb10 (5′-[…]-3′) and cloned into the pCR-Bac vector (Invitrogen, Groningen, NL).
# The recombinant baculovirus was prepared by means of homologous recombination in SF9 insect cells. The expression plasmids were cotransfected with Bac-N-Blue (Invitrogen, Groningen, NL) or Baculo-Gold DNA (Pharmingen, Hamburg) using a standard protocol (Pharmingen, Hamburg). Wt virus-free recombinant virus supernatants were selected using plaque assay methods. After that, high-titre virus supernatants were prepared by amplifying 3 times. PDE4B2 was expressed in SF21 cells by infecting 2×10^6 cells/ml with an MOI (multiplicity of infection) between 1 and 10 in serum-free SF900 medium (Life Technologies, Paisley, UK). The cells were cultured at 28° C. for 48-72 hours, after which they were pelleted for 5-10 min at 1000 g and 4° C.
# The SF21 insect cells were resuspended, at a concentration of approx. 10^7 cells/ml, in ice-cold ([…]) homogenization buffer (20 mM Tris, pH 8.2, containing the following additions: 140 mM NaCl, 3.8 mM KCl, 1 mM EGTA, 1 mM MgCl2, 10 mM-mercaptoethanol, 2 mM benzamidine, 0.4 mM Pefablock, 10 μM leupeptin, 10 μM pepstatin A, 5 μM trypsin inhibitor) and disrupted by ultrasonication. The homogenate was then centrifuged for 10 min at 1000×g and the supernatant was stored at −80° C. until sub-sequent use (see below). The protein content was determined by the Bradford method (BioRad, Munich) using BSA as the standard.
# PDE4B2 activity was inhibited by the said compounds in a modified SPA (scintillation proximity assay) test, supplied by Amersham Biosciences (see procedural instructions “phosphodiesterase [3H]cAMP SPA enzyme assay, code TRKO 7090”), carried out in 96-well microtitre plates (MTP's). The test volume is 100 μl and contains 20 mM Tris buffer (pH 7.4), 0.1 mg of BSA (bovine serum albumin)/ml, 5 mM Mg^2+, 0.5 μM cAMP (including about 50,000 cpm of [3H]cAMP), 1 μl of the respective substance dilution in DMSO and sufficient recombinant PDE (1000×g supernatant, see above) to ensure that 10-20% of the cAMP is converted under the said experimental conditions. […] After a preincubation of 5 min at 37° C., the reaction is started by adding the substrate (cAMP) and the assays are incubated for a further 15 min; after that, they are stopped by adding SPA beads (50 μl). […] After the beads have been sedimented (>30 min), the MTP's are analyzed in commercially available luminescence detection devices. The corresponding IC50 values of the compounds for the inhibition of PDE activities are determined from the concentration-effect curves by means of non-linear regression.
# T1 sequence (Q07343 1-564 isoform Q07343-2): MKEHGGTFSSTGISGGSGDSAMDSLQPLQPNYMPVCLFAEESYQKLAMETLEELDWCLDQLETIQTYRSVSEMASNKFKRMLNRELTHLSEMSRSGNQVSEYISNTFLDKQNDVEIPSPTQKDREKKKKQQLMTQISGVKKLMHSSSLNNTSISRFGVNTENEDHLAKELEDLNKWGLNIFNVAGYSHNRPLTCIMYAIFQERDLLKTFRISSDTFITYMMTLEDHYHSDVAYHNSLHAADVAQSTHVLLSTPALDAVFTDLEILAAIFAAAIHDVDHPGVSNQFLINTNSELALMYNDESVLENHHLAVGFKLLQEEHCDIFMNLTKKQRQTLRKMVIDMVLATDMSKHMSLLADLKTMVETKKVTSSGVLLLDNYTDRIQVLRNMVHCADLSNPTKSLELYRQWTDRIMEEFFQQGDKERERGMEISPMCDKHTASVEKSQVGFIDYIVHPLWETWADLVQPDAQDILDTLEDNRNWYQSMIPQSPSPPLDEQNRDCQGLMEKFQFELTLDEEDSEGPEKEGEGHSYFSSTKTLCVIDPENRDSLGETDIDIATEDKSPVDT
row,IC50 [nM],SMILES
1,3.31,"CCOc1cc2c(cc1OC)C(c1ccc(C(=O)N(C(C)C)C(C)C)cc1)=N[C@@H]1CC[S+]([O-])C[C@H]21 (single isomer, unassigned) [Compound 3]"
2,20,"CCOc1cc2c(cc1OC)C(c1ccc(C(=O)N(C(C)C)C(C)C)cc1)=[N+]([O-])[C@@H]1CCS(=O)(=O)C[C@H]21 [Compound 5, 4-((4aR,10aR)-6-Ethoxy-7-methoxy-3,3-dioxo-10-oxy-1,2,3,4,4a,10a-hexahydro-3l^6-thia-10-aza-phenanthren-9-yl)-N,N-diisopropyl-benzamide]"
3,145,"CCOc1cc2c(cc1OC)C(c1ccc(C(=O)N(C(C)C)C(C)C)cc1)=N[C@@H]1CC[S+]([O-])C[C@H]21 (single isomer, unassigned) [Compound 2]"
4,0.724,"CCOc1cc2c(cc1OC)C(c1ccc(C(=O)N(C(C)C)C(C)C)cc1)=N[C@@H]1CCSC[C@H]21 [Compound 1, 4-((4aR,10aR)-6-Ethoxy-7-methoxy-1,4,4a,10a-tetrahydro-2H-3-thia-10-aza-phenanthren-9-yl)-N,N-diisopropyl-benzamide]"
